Measurements reported in US6221676A, “DNA encoding human leukotriene C4 synthase, polypeptides and uses therefor” (Brigham and Women's Hospital, priority 1997, dated 2001).
Values belong to the molecule of their own block, whether it stands above or below them.

Experiments:
LTC4 synthase = target: T1, LTC4 synthase (Homo sapiens, UniProt Q16873); test: Inhibition of LTC4 synthase activity (conversion of LTA4-ME to LTC4-ME) in lysates of transfected COS-7 cells; assay type: biochemical
T1 construct: expressed in transfected cells; host or cells: COS-7 (lysate of transfectants; cDNA from a KG-1 library in pcDNA3)
T1 sequence (Q16873 1-150): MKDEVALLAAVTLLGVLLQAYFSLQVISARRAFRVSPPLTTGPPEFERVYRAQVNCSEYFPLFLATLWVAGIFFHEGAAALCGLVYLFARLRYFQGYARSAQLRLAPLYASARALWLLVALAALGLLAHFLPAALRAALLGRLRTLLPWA
Protocol: HPLC was carried out with a model 126 dual pump system and model 167 scanning UV detector (Beckman Instruments) controlled by an IBM PS2/50 computer using Beckman System Gold software. Samples were applied to a 5-μm 4.6×250-mm C18 Ultrasphere reverse phase column (Beckman Instruments) equilibrated with a solvent of methanol/acetonitrile/water/acetic acid (10:15:100:0.2, v/v), pH 6.0 (solvent A). After injection of the sample, the column was eluted at a flow rate of 1 ml/min with a programmed concave gradient (System Gold curve 6) to 30% solvent A and 70% pure methanol (solvent B) over 0.2 min. After 2.8 min more, solvent B was increased linearly to 90% over 2 min and was maintained at this level for an additional 10 min. UV absorbance at 280 nm and the UV spectra were recorded simultaneously. The retention times for PGB2 and LTC4 -ME were 8.5 and 10.1 min, respectively. LTC4 -ME was quantitated by calculating the ratio of the peak area to the area of the internal standard PGB2.
Dose-Response Assay using MK886
Cell lysates of the COS-7 cell transfectant containing SEQ ID NO.: 1 were incubated with 20 micromolar LTA4 -ME, 20 mM GSH, 5 mM MgCl2 in HEPES buffer (pH 7.6), in the presence of 0-10 micromolar MK-886 for 10 minutes at room temperature. Reactions were stopped by addition of 2 volumes of methanol containing 200 ng PGB2. Samples were analyzed by RP-HPLC.
Lysates from transfected COS cells were analysed for LTC4, the product of conjugating reduced glutathione with 5,6-oxido-7,9-E-11,14-Z-eicosatetraenoic acid. […] At 10 μM, MK-886 inhibits more than 90% of the enzyme activity.

[1] = Conjugation of GSH to 1-chloro-2,4-dintrobenzene by purified LTC4 synthase fraction; assay type: biochemical; conditions: fraction purified from native KG-1 cells
From the text: Detergent-solubilize LTC4 synthase from 6×10^10 native KG-1 cells (using 0.4% deoxycholate, 0.4% Triton X-102, 10% glycerol) was purified by S-hexylglutathione-agarose chromatography using procedures adapted from Penrose et al., Proc. Nat. Acad. Sci., USA, 89:, above, followed by LTC2 affinity chromatography. Active fractions purified from the S-hexylglutathione-agarose column were combined, concentrated (Amicon, Danvers, Mass.) and then loaded onto an LTC2 affinity column equilibrated with buffer A and 0.1% Triton X-102. The column was washed with the same buffer and the enzyme was eluted with buffer A, containing 0.1% Triton X-102, 0.5 M NaCl and 5 mM reduced glutathione.
The LTC4 synthase activity contained a single 18-kDa protein by sodium dodecyl sulfate-polyacrylamide gel electrophoresis (NaDodSO4 -PAGE) with silver staining. […] A sample of the purified protein was concentrated and added to an equal volume of reducing buffer, and the mixture was boiled for 5 min. The reduced protein in this solution was bound to a polyvinylidene membrane by incubation overnight at 4° C. The bound protein was analyzed for N-terminal amino acid sequence by automated Edman degradation or was digested in situ with trypsin. Fernandez et al., Anal. Biochem., 201: 255-264 (1992). […]

- effect on LTC4 synthase activity (LTC4 synthase; at a concentration of 10 μM, COS cell lysates): did not affect LTC4 synthase activity
Molecule: C[C@H](C#Cc1ccc(Oc2ccc(F)cc2)o1)N(O)C(N)=O [A79175]

Molecule: CC(C)c1ccc2c(c1)c(SC(C)(C)C)c(CC(C)(C)C(=O)O)n2Cc1ccc(Cl)cc1 [MK-886]
- IC50 (LTC4 synthase; IC50, inhibition of conversion of LTA4-ME to LTC4-ME, 20 uM LTA4-ME, COS cell lysates, dose-dependent, 10 minutes, room temperature): < 3 µM
- IC50 (LTC4 synthase; ID50, inhibition of LTC4 synthase activity, transfected COS cell lysates, dose-related (Discussion)): ~3 µM
- inhibition at 10 µM (LTC4 synthase; read-out: inhibition of the enzyme activity): > 90%

B1: LTC4 synthase: 150-amino acid residue integral membrane protein with three hydrophobic transmembrane domains (protein, UniProt Q16873 1-150, looked up)
Leukotriene C4 synthase: MKDEVALLAAVTLLGVLLQAYFSLQVISARRAFRVSPPLTTGPPEFERVYRAQVNCSEYFPLFLATLWVAGIFFHEGAAALCGLVYLFARLRYFQGYARSAQLRLAPLYASARALWLLVALAALGLLAHFLPAALRAALLGRLRTLLPWA
- conjugation of GSH to 1-chloro-2,4-dintrobenzene [1]: did not conjugate GSH to 1-chloro-2,4-dintrobenzene
